Data taken from patent US5158939A, “Method of stimulating the immune systems of animals and compositions useful therefor” (priority 1990, dated 1992).
Entries after “also recorded” stand apart in the source; their conditions may differ. Like-named read-outs stand apart in the source and are kept apart here.

Key:
70Z/3 cells = assay type: cell-based
Experimental: ^1 Corrected for background of 5% fluorescence.
^2 The DPLA stimulated 7OZ/3 preB cells to the extent of from 2.5-6.0
fluorescence at concentrations of 1.0-10 mg/ml. In the competitive
inhibition experiment, the cells were first exposed to DPLA for 2 hours
before adding the ReLPS. In all experiments, the ReLPS and DPLA were
complexed with bovine serum albumin.
In this experiment, 0.1 μg/ml of ReLPS and 3.0 μg/ml of DPLA were
^1 The time of pre/post treatment of 7OZ/3 cells with DPLA relative t
the time of addition of ReLPS are indicated.

mice = experiment: LD50 in galactosamine-sensitized mice; assay type: in vivo
Experimental: Although the diphospholipids from E. coli and Salmonella strains are highly toxic, DPLA having the structure of the diphosphoryllipid A from R. sphaeroides is not. The LD50 of DPLA in galactosamine--sensitized mice was greater than 20 mg/kg.

[1] = Toxicity / endotoxic activity (general statements); settings: in words
[2] = tested on: RAW 264.7 murine macrophage cells; experiment: Cachectin/TNF production by RAW 264.7 cells, immunoblot; assay type: cell-based
Experimental: For the […] to activate the RAW 264.7 murine macrophage cell line, we chose the toxic deep rough chemotype LPS (ReLPS) from Escherichia coli D31m4, which was recently purified and characterized^15. […] This is a clear example of a lipid A derivative showing strong antagonism against a toxic agonist in the induction of cachectin.
The immunoblot method was used to quantitate the cachectin/TNF production by RAW 264.7 murine macrophage cells. RAW 264.7 cells^4,16 were seeded in 24-well plates (Nunc) at a density of 3×10^5 cells/well in Dulbecco's modified Eagle's medium supplemented with 5 percent fetal calf serum. After 12 hours, cell monolayers were washed twice with 1 ml of serum-free medium and then left covered with […] of the same. An aqueous suspension of DPLA and/or ReLPS was then added to a final concentration indicated. Cells were incubated for 12 hours, after which the medium was removed for measurement of TNF by immunoblotting. One hundred μl of medium was mixed with 100 μl of SDS-containing sample buffer, heated to 100° C. for 5 minutes, and subjected to electrophoresis in a 10-15% polyacrylamide gradient gel. Proteins were then transferred to nitrocellulose electrophoretically, and TNF was visualized through the use of a rabbit anti-mouse TNF polyclonal serum^3,5 applied at a 1:100 dilution, followed by alkaline phosphatase-conjugated goat anti-rabbit IgG (Bio-Rad).
Bands were visualized using nitroblue tetrazolium. Approximately 0.1 ng of cachectin/TNF may be detected as a band. The antiserum also recognized the processing intermediates (prohormones) on Western blot.

chick embryo = experiment: Chick embryo lethality test; assay type: in vivo
Experimental: It was characterized as the tetramethyl derivative by plasma desorption mass spectrometry. It is nontoxic based on the chick embryo lethality test (CELD50 >20 μg), and its structure is shown in Formula II.

[3] = tested on: RAW 264.7 murine macrophage cells; settings: as reported; cited from earlier work
peritoneal macrophages = experiment: Induction of IL-1 in thioglycollate-elicited peritoneal macrophages (comitogenic thymocyte assay); assay type: cell-based, BDF1 mice; settings: for IL-1 induction, CPM: SD in parentheses; for induction of IL-1 release: DPLA alone 0.1, 1.0, 10 μg/ml
Experimental: 1L-1 assay--Peritoneal exudate cells were harvested from BDF1 mice 48 h after an intraperitoneal injection of thioglycollate. […] Macrophages were either pretreated with R. sphaeroides DPLA (0.1-10 μg/ml) followed by the addition of toxic Re LPS (0.1 μg) after 2 h, or immediately stimulated with Re LPS (0.01-1.00 μg/ml). Control wells were treated with 10 μl of media containing 0.5% triethylamine. Cultures were incubated at 37° C. in the presence of 5% CO2 for 18 h at which time the supernatants were collected and frozen at -20° C. until assayed. 1L-1 activity was determined by the comitogenic thymocyte assay.^25
Peritoneal exudate cells were harvested from BDF1 mice 48 h after an intraperitoneal injection of thioglycollate as described previously (Lederer and Czuprynki). Macrophages were either pretreated with R. sphaeroides DPLA (0.1-10 μg/ml) followed by addition of toxic ReLPS (0.1 μg), or immediately stimulated with ReLPS (0.01-1.00 μg/ml). Control wells were treated with 10 μl of media with 0.5% triethylamine. Cultures were incubated at 37° C. in the presence of 5% CO2 for 18 h at which time the supernatants were collected and frozen at -20° C. until assayed.
ReLPS was added to the culture 2 h after adding the R. sphaeroides DPLA. […] Standard deviation in CPM are given in parentheses.

serum TNF = experiment: Serum TNF rise after E. coli LPS in mice; assay type: in vivo; settings: RsDPLA 100 μg and 1 mg, 60 and 90 min before E. coli LPS 1 μg and 5 μg i.p.

## CCCCCCC=CCCCCCC(=O)OC(CCCCCCCCCCC)CC(=O)NC1C(OCC2OC(OP(=O)(O)O)C(NC(=O)CC(=O)CCCCCCCCCCC)C(OC(=O)CC(O)CCCCCCC)C2O)OC(CO)C(OP(=O)(O)O)C1OC(=O)CC(O)CCCCCCC (stereo not shown) [DPLA]
70Z/3 cells; Table 5, DPLA 10 μg/ml, ReLPS 10 μg/ml
  Activation (% fluorescence): 69 % fluorescence
70Z/3 cells; Table 6, DPLA 3.0 μg/ml added at 0 h relative to ReLPS 0.1 μg/ml
  Activation (% fluorescence): 10.5 % fluorescence
70Z/3 cells; Table 6, DPLA 3.0 μg/ml added at 2 h relative to ReLPS 0.1 μg/ml
  Activation (% fluorescence): 20 % fluorescence
70Z/3 cells; Table 6, DPLA 3.0 μg/ml added at 4 h relative to ReLPS 0.1 μg/ml
  Activation (% fluorescence): 24 % fluorescence
70Z/3 cells; Table 6, DPLA 3.0 μg/ml added at 6 h relative to ReLPS 0.1 μg/ml
  Activation (% fluorescence): 24.5 % fluorescence
70Z/3 cells; Table 6, DPLA 3.0 μg/ml added at 8 h relative to ReLPS 0.1 μg/ml
  Activation (% fluorescence): 9.5 % fluorescence
70Z/3 cells; Table 6, DPLA 3.0 μg/ml added at 16 h relative to ReLPS 0.1 μg/ml
  Activation (% fluorescence): 44 % fluorescence
70Z/3 cells; Table 6, DPLA 3.0 μg/ml added at 20 h relative to ReLPS 0.1 μg/ml
  Activation (% fluorescence): 54 % fluorescence
70Z/3 cells; Table 6, DPLA 3.0 μg/ml added at 24 h relative to ReLPS 0.1 μg/ml
  Activation (% fluorescence): 55.5 % fluorescence
70Z/3 cells; Table 6, DPLA 3.0 μg/ml added at -2 h relative to ReLPS 0.1 μg/ml
  Activation (% fluorescence): 11 % fluorescence
70Z/3 cells; in words
  antagonism of LPS-induced activation of 70Z/3 pre-B cells: effective antagonist in the LPS-induced activation of 70Z/3 pre-B cells; also recorded: block LPS-inducted immunoglobulin synthesis by 70Z/3 pre-B cells
mice
  LD50: greater than 20 mg/kg
[1]
  endotoxic activity: nontoxic
[1]; listed as R. sphaeroides DPLA
  endotoxic activity: not endotoxic
[1]; listed as pentaacyl DPLA
  endotoxic activity: lacks endotoxic activity; also recorded: no endotoxic activity
[2]; DPLA 1-1000 ng/ml
  induction of cachectin (immunoblot): not able to induce the formation of cachectin
[2]; DPLA 10^3 ng/ml + ReLPS 10 ng/ml (ReLPS:DPLA 1:100)
  inhibition of ReLPS-induced cachectin (immunoblot): definite inhibition
[2]; DPLA 10^4 ng/ml
  induction of cachectin (immunoblot): only slight induction
[2]; in words
  blocking of ReLPS-induced cachectin/TNF (immunoblot): blocks the induction of cachectin; also recorded: blocking of induction
[2]; with ReLPS 10 ng/ml
  DPLA concentration at which inhibition was probably maximal: < 10^4 ng/ml
Chick embryo
  CELD50: > 20 µg
[3]
  blocking of LPS-induced TNF: competes successfully with toxic LPS to block the induction of TNF in a dose-dependent manner
  induction of TNF: fails to induce the synthesis and release of TNF by macrophages
Peritoneal macrophages; DPLA 0.1 μg/ml 2 h before ReLPS 0.1 μg/ml
  IL-1 induction, CPM: 51,999 (4860) CPM
Peritoneal macrophages; DPLA 0.1 μg/ml + ReLPS 0.1 μg/ml
  IL-1 induction, CPM - Blank: 44,211 CPM
Peritoneal macrophages; DPLA 1.0 μg/ml 2 h before ReLPS 0.1 μg/ml
  IL-1 induction, CPM: 28,276 (4860) CPM
Peritoneal macrophages; DPLA 1.0 μg/ml + ReLPS 0.1 μg/ml
  IL-1 induction, CPM - Blank: 20,491 CPM
Peritoneal macrophages; DPLA 10.0 μg/ml 2 h before ReLPS 0.1 μg/ml
  IL-1 induction, CPM: 5,892 (886) CPM
Peritoneal macrophages; DPLA 10.0 μg/ml + ReLPS 0.1 μg/ml
  IL-1 induction, CPM - Blank: 0 CPM
Peritoneal macrophages; DPLA 10.0 μg/ml, ReLPS 0.1 μg/ml (1:100)
  % Inhibition of IL-1 induction by ReLPS: total
Peritoneal macrophages; DPLA alone 0.1 μg/ml
  IL-1 induction, CPM - Blank: 0 CPM
  IL-1 induction, CPM: 3,511 (616) CPM
Peritoneal macrophages; DPLA alone 1.0 μg/ml
  IL-1 induction, CPM - Blank: 0 CPM
  IL-1 induction, CPM: 2,911 (383) CPM
Peritoneal macrophages; DPLA alone 10.0 μg/ml
  IL-1 induction, CPM - Blank: 0 CPM
  IL-1 induction, CPM: 3,764 (785) CPM
Peritoneal macrophages; in words
  induction of IL-1 release: unable to induce interleukin-1 release; also recorded: no IL-1/releasing activity
  blocking of ReLPS-induced IL-1 release: blocked this activity by toxic deep rough chemotype LPS; also recorded: antogonize the induction of IL-1 release by toxic Re LPS; also recorded: blocked the release of IL-1
Peritoneal macrophages; in words, listed as pentaacyl DPLA
  induction of IL-1 release: unable to induce 1L-1
Serum TNF
  rise in serum TNF: blocked a rise in serum TNF
